Results taken from PMC11052790 (Clinical Pharmacokinetics, 2024).
Marks after values point to notes of the source that are not given here.

How the values were obtained:
[1] = system: CYP3A4; assay: CYP3A4 activity time course with microdosed oral midazolam
[2] = target: CYP2C19 (Homo sapiens, UniProt P33261); conditions: after ritonavir discontinuation vs baseline
[3] = healthy volunteers, 6 days of high-dose ritonavir 600 mg bid; cited from earlier work
[4] = fifth day of ritonavir 100 mg bid vs before ritonavir; 8 healthy volunteers
[5] = with ketoconazole vs alone, previous trial EudraCT 2017-004453; cited from earlier work
[6] = Ritonavir plasma exposure during 5-day 100 mg bid therapy; assay type: in vivo, human

Sequence of CYP2C19 (P33261 whole entry): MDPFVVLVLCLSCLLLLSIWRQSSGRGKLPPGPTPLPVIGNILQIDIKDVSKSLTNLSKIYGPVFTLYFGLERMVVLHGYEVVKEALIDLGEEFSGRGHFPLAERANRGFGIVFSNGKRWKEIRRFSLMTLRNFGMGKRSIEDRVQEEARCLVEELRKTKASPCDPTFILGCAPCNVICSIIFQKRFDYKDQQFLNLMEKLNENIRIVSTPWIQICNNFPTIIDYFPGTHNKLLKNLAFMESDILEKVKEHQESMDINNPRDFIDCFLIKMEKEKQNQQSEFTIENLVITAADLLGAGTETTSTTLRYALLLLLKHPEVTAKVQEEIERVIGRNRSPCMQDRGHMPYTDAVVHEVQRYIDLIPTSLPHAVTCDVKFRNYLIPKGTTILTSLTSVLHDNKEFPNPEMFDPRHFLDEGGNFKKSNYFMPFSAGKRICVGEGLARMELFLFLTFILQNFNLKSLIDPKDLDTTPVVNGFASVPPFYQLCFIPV

Compound: Cc1ncc2n1-c1ccc(Cl)cc1C(c1ccccc1F)=NC2 [Midazolam, midazolam]
- Midazolam AUC2–4 increase, times baseline values ([1]; from day 2 to day 5 of ritonavir treatment): 11.1–15.5 times baseline

Compound: COc1ccc2[nH]c([S+]([O-])Cc3ncc(C)c(OC)c3C)nc2c1 (stereo not drawn) [Omeprazole, omeprazole]
- Decrease of omeprazole AUC0–4 [2]: approximately 35%

Compound: O=C(NC[C@H]1CN(c2ccc(N3CCOCC3=O)cc2)C(=O)O1)c1ccc(Cl)s1 [Rivaroxaban, rivaroxaban]
- Exposure (AUC) increase of rivaroxaban [3]: 2.5 fold
- Geometric mean ratio (GMR) AUC0–24 [4]: 1.87*
- AUCinf ratio [5]: 2.37 ± 0.53

Compound: CC(C)c1nc(CN(C)C(=O)N[C@H](C(=O)N[C@@H](Cc2ccccc2)C[C@H](O)[C@H](Cc2ccccc2)NC(=O)OCc2cncs2)C(C)C)cs1 [ritonavir]
- Estimated time to full recovery of CYP3A4 activity ([1]; after a 5-day treatment course with ritonavir 100 mg bid): 10 to 12 days
- AUC(0-t) ([6]; human, plasma, oral, 100 mg): 4590 to 5330 ng·h/mL
- Cmax ([6]; human, plasma, oral, 100 mg, Cmax of ritonavir, remaining 4 days of 100 mg bid): 1780 to 2110 ng/mL
- Ritonavir plasma concentrations ([6]; two days after the last ritonavir dose, LLOQ 10 ng/mL): close to or below the LLOQ
